Experimental data as given in US20260183303A1, “PDK1 REGULATORY COMPOUND AND COMPOSITION CONTAINING THE SAME” (PROVIBIO CO., LTD., priority 2024, published 2026).

How the values were obtained:
[1] = system: bleomycin-induced pulmonary fibrosis mice; assay: Pulmonary fibrosis model induced by bleomycin intratracheal administration; assay type: in vivo, Balb/c mice; conditions: BLM mice, vs BLM-treated group
Source text: To evaluate the therapeutic efficacy of the compound according to the present invention against pulmonary fibrosis, an animal model of pulmonary fibrosis induced by bleomycin intratracheal administration was established.
For this purpose, 8-week-old male Balb/c mice were subjected to general anesthesia using an inhalation anesthetic (2-3% isoflurane in oxygen), followed by disinfection of the neck region, skin incision, and exposure of the trachea.
Bleomycin (Sigma-Aldrich, USA)was directly administered into the trachea at a concentration of 5 mg/kg in a solution of […].
Two days prior to Bleomycin administration, the compound of the present invention or the comparative drug was administered intraperitoneally at the specified concentration and dose, and the administration was continued once daily for a total of 14 days.
The experimental groups included Normal, Bleomycin alone (BLM), and BLM plus the compound of the present invention (BLM+G088, 0.2 mg/kg).
Ten days later, the mice were euthanized humanely using carbon dioxide gas, the trachea was incised, and PBS was injected into the trachea to remove blood from the lungs.
The lung tissue washed with PBS was excised, fixed in 4% paraformaldehyde solution for 24 hours, and then paraffin blocks and tissue sections were prepared. The prepared sections were subjected to pathological analysis using H&E, Masson's trichrome, and Sirius red staining.
Additionally, immunohistochemical (IHC) staining was performed for α-SMA (α-smooth muscle actin), an indicator of lung fibroblast activation.

[2] = target: T1, PDK1 (phosphoinositide-dependent kinase 1) phosphorylation (Homo sapiens, UniProt O15530); assay: PDK1 phosphorylation (pPDK1-PE) by flow cytometry in SU-DHL-8 cells; assay type: cell-based; conditions: 24 hours, compared to the control group
T1 construct: endogenous in cells; host or cells: SU-DHL-8 (ATCC CRL-2961)
T1 sequence (O15530 1-556): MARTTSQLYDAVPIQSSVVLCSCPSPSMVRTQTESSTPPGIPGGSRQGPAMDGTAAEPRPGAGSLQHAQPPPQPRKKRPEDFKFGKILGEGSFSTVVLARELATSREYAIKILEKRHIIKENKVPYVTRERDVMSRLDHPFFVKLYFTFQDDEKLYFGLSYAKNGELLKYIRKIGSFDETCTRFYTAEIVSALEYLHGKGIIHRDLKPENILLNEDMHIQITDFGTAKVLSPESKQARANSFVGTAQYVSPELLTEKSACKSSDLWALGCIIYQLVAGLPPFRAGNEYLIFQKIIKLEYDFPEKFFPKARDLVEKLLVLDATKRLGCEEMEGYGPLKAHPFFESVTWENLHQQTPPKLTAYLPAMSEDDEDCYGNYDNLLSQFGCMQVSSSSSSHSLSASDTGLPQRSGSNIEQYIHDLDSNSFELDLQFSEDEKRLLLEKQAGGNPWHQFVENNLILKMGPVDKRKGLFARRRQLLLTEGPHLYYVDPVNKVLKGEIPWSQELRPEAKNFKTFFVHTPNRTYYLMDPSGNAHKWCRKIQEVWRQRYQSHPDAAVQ
Method: After stabilizing the cells, the compound of the present invention was added, and the cells were cultured for 24 hours.
After drug treatment, the cells were harvested, and the Fc receptor blocking process was performed. The cells were then fixed and permeabilized using the Intracellular Staining Kit (Cat. No. BD554715) from BD Biosciences. Subsequently, the intracellular pPDK1 was stained using the pPDK1-PE fluorescently labeled antibody (BD Biosciences).
Referring to the figure, the vertical axis represents the phosphorylation level of PDK1 (phospho-PDK1 expression level), and the horizontal axis denotes the concentration-dependent treatment conditions of each compound.

[3] = system: MRL/MpJ-Faslpr/J (MRL/lpr) lupus animal model; assay: Systemic lupus erythematosus model, MRL/lpr mice; assay type: in vivo
Source text: The MRL/MpJ-Faslpr/J (hereinafter referred to as “MRL/lpr”) used in this experiment is one of the representative animal models for systemic lupus erythematosus (SLE), known to produce various autoantibodies, including antinuclear antibodies, due to the lpr (lymphoproliferation) gene.
Generally, female MRL/lpr develop systemic lupus erythematosus around 12 weeks of age, and approximately 50% of the animals die by 30 weeks of age.
In this invention, the period up to 9 weeks of age was considered the pre-disease stage, and the period after 23 weeks of age was considered the post-disease stage, and efficacy verification experiments using this model were conducted.
To obtain experimental animals, female MRL/lpr mice aged 6 weeks were imported from The Jackson Laboratory, and MRL/lpr mice were imported from The Jackson Laboratory and acclimatized for one week in an SPF (Specific Pathogen Free) facility maintained at a temperature of 21-24° C., humidity of 40-60%, and a 12-hour light-dark cycle (lights on at 7:00 AM, lights off at 7:00 PM).
Subsequently, female and male MRL/lpr mice were mated at a ratio of 2:1 in the same facility, and the female offspring were administered the compound G015F of the present invention or vehicle at a dose of 30 mg/kg once daily via intraperitoneal injection or oral administration from the age of 10 weeks until 23 weeks of age.
Urine samples were collected once a week from each individual and used for analytical experiments.
At 23 weeks of age, necropsy was performed on each MRL/lpr mouse, and serum, kidneys, and spleens were isolated and used for analytical experiments.
The protein concentration in urine collected weekly from the control group or experimental group was analyzed using ‘Quick Start™ Bradford 1× Dye Reagent (Bio-Rad, Cat. #5000205).’
In each well of a 96-well plate, 5 μl of urine sample diluted with triple-distilled water and 250 μl of 1× dye reagent were added, reacted, and the absorbance was measured at 595 nm.
The concentration of anti-nuclear antibodies (Anti-dsDNA Ab) was measured using the ‘Mouse Anti-dsDNA IgG ELISA Kit (Alpha Diagnostic International, Cat. #5120)’ on serum isolated at the time of necropsy in the lupus animal model.
Each mouse serum was diluted to a final concentration of 1/5000 with Working Sample Diluent (WSD) and Low NSB Sample Diluent (LNSD), followed by adding 100 μl of the diluted serum to wells coated with anti-dsDNA and incubating at room temperature for 60 minutes.
The wells were then washed four times with 200 μl of washing buffer, followed by the addition of 100 μl of Anti-Mouse IgG-HRP antibody, and the mixture was incubated at room temperature for 30 minutes.
Each well was washed four times with 200 μl of washing buffer, and 100 μl of 3,3′,5,5′-Tetramethylbenzidine (TMB) substrate solution was added to each well.
The degree of color change to blue in the wells containing the standard solution was checked, and after 15 minutes, 100 μl of stop solution was added to terminate the reaction.
After the reaction was complete, the optical density (OD) was measured at 450 nm. […]
After that, each well was washed twice with 400 μl of washing solution, and 100 μl of TMB substrate solution was added to each well.
The degree of color change to blue in the wells containing the standard solution was checked, and after 15 minutes, 100 μl of stop solution was added to stop the reaction.
To investigate the effect of G015F administration on changes in the ratio of immune cells in the spleen of a lupus animal model, the spleens of mice administered each compound were excised, cells were extracted, and the cells were suspended in MACS buffer (autoMACS Washing Solution, Miltenyi Biotec., Cat. #130-092-987).
For flow cytometry analysis, FACS tubes (5 mL round tubes, Falcon, Cat. #352052)were used. […]

[4] = system: MRL/lpr mice with hair loss symptoms in the facial region; assay: Hair loss treatment and hair follicle Ki-67 IHC in MRL/lpr mice; assay type: in vivo; conditions: 41-week-old female MRL/lpr mice; GO15F (30 mg/kg), G048 (1 mg/kg), G088 (0.5 mg/kg) intraperitoneally once daily
Method: Additionally, in 41-week-old female MRL/lpr mice, the compounds GO15F (30 mg/kg), G048 (1 mg/kg), and G088 (0.5 mg/kg) were administered intraperitoneally once daily.
To confirm the proliferative activity of hair follicle cells in the skin tissue of these mice, the mice were sacrificed 14 days after administration of the compounds of the present invention, and Ki-67 immunohistochemistry […] was performed.
For this purpose, the excised skin tissue was fixed in formalin, embedded in paraffin blocks, and stained with a Ki-67-specific antibody on tissue sections prepared as slides.

[5] = system: human lung fibroblasts MRC-5 cell lines; assay: Collagen I Western blot in TGF-β treated MRC-5 cells; assay type: cell-based; conditions: MRC-5, TGF-β (5 ng/ml), G088 0.5 μM and 1 M (so in the source), 24 hours
Method: To confirm that the compound of the present invention directly acts on fibrosis-related mechanisms, in vitro experiments were performed using human lung fibroblasts MRC-5 cell lines (Korea Cell Bank).
First, MRC-5 cells were seeded at 5×10^3 cells per well in a 6-well plate and stabilized for 24 hours.
Subsequently, experimental groups were established, including a control group, a group treated with TGF-β (5 ng/ml) alone, and groups treated with TGF-β and the compound G088 from the present invention at concentrations of 0.5 μM and […], respectively.
After treating each group with the drugs for 24 hours, the cell medium was removed, and the cells were washed twice with cold PBS. Then, RIPA lysis buffer containing phosphatase inhibitor and protease inhibitor was added to each group to extract proteins.
The extracted proteins were incubated at 4° C. for 30 minutes, then centrifuged at 13,000 rpm for 15 minutes, and the supernatant was collected. The total protein concentration was measured using the BCA protein quantification method.
Subsequently, the proteins were separated by SDS-PAGE, transferred to a PVDF membrane, and Western blot analysis was performed.
The expression levels of Collagen I, a marker related to pulmonary fibrosis, were confirmed, with GAPDH used as an internal control.

[6] = target: T2, full-length PDK1 (PDK1-FL) (Homo sapiens, UniProt O15530); assay: Binding affinity by Microscale Thermophoresis (MST), full-length PDK1; conditions: ratio of Kd values
T2 construct: full-length (PDK1-FL) protein of human-derived PDK1; made in house; host or cells: Sf9 insect cells, baculovirus
T2 sequence (O15530 1-556): T1 sequence (O15530 1-556)
Method: Experimental Example 16: Binding affinity experiment with PDK1 using MST Microscale Thermophoresis (MST) analysis was performed to quantitatively measure the binding affinity between PDK1 protein and substrate peptides (PDKTide) or the company-developed low-molecular-weight compound (GO88).
The target proteins were the full-length (PDK1-FL) protein of human-derived PDK1 and the Protein Kinase Domain (PKD) fragment, which were expressed using a baculovirus expression system in insect cell lines (Sf9).
The purity of the purified proteins was confirmed by SDS-PAGE and Coomassie Brilliant Blue staining.
The purified protein was labeled with a fluorescent label using the Monolith NT™ RED-NHS Protein Fluorescent Labeling Kit (NanoTemper).
Specifically, 20 μM of the protein was dissolved in PBS (pH 7.4) buffer, mixed with the fluorescent reagent, and reacted at room temperature under dark conditions for 30 minutes. The mixture was then buffered with MST analysis buffer (50 mM HEPES, 150 mM NaCl, 1 mM DTT, 0.05% Tween-20, pH 7.5). […]
The reaction samples were injected into an MST-specific capillary (NanoTemper) and analyzed using a Monolith NT.115 device (NanoTemper) under laser intensity conditions. […]
The measured data were analyzed using MO.Affinity Analysis software (NanoTemper), and the dissociation constant (Kd) was calculated from the binding curve.

[7] = serum at necropsy (23 weeks), ELISA

phospho-PDK1 expression level (inhibition of PDK1 phosphorylation) [2]	binding affinity of full-length PDK1 compared to the PDK fragment [6]	SMILES	collagen deposition (Masson's trichrome, Sirius red) [1]	expression of α-SMA in lung tissue (IHC) [1]	protein concentration in urine ([3]; 30 mg/kg once daily, weekly urine, Bradford)	renal pathological tissue staining (glomeruli) ([3]; H&E, PAS, Masson trichrome)	B cells, T cells and macrophages in the spleen ([3]; flow cytometry (B220, CD3, CD11b/F4/80))	IgG deposition in kidney tissue ([3]; immunofluorescence staining)	concentration of anti-dsDNA IgG in the blood [3, 7]	total IgG concentration in the blood [3, 7]	hair growth on the facial region [4]	protein expression of Collagen I [5]
stronger PDK1 inhibition	–	Nc1ncccc1C(=O)NCCCCCCCCCCCCN1CCOCC1 [Compound 2, 2-Amino-N-(12-morpholin-4-yl-dodecyl)-nicotinamide]	–	–	–	–	–	–	–	–	hair growth was confirmed	–
stronger PDK1 inhibition	six times stronger	Nc1ncccc1C(=O)NCCCCCCCCCCCCN1CCNCC1 [Compound G088]	significantly reduced	significantly suppressed	–	–	–	–	–	–	hair growth was confirmed	inhibited in a concentration-dependent manner

SMILES	phospho-PDK1 expression level (inhibition of PDK1 phosphorylation) [2]	binding affinity of full-length PDK1 compared to the PDK fragment [6]	collagen deposition (Masson's trichrome, Sirius red) [1]	expression of α-SMA in lung tissue (IHC) [1]	protein concentration in urine ([3]; 30 mg/kg once daily, weekly urine, Bradford)	renal pathological tissue staining (glomeruli) ([3]; H&E, PAS, Masson trichrome)	B cells, T cells and macrophages in the spleen ([3]; flow cytometry (B220, CD3, CD11b/F4/80))	IgG deposition in kidney tissue ([3]; immunofluorescence staining)	concentration of anti-dsDNA IgG in the blood [3, 7]	total IgG concentration in the blood [3, 7]	hair growth on the facial region [4]	protein expression of Collagen I [5]
Nc1ncccc1C(=O)NCCCCCCCCCCCCF [Compound G015F]	inhibitory effect on PDK1 phosphorylation	–	significantly reduced	significantly suppressed	significantly lower	glomerular capillary loops were well maintained	reduced the increased B cells, T cells, and macrophages	significantly lower	significantly lower	significantly lower	–	–
